Assay results published in article PMC3213090, “Phytophthora sojae Avirulence Effector Avr3b is a Secreted NADH and ADP-ribose Pyrophosphorylase that Modulates Plant Immunity” (PLoS Pathogens, 2011).

Assays:
FLAG:AtNUDT7 = molecular target: T1, FLAG:AtNUDT7 (Arabidopsis thaliana, UniProt Q9SU14); assay: phosphate release coupled to calf alkaline phosphatase, molybdate A820; assay type: biochemical; conditions: 2 mM substrate, 5 mM MgCl2, 1 mM DTT, pH 8.5, 37 C; immunoprecipitate, not homogeneous
T1 construct: gene NUDT7; FLAG tag fused; Nicotiana benthamiana transient expression, anti-FLAG immunoprecipitated, eluted
T1 sequence (Q9SU14 1-282): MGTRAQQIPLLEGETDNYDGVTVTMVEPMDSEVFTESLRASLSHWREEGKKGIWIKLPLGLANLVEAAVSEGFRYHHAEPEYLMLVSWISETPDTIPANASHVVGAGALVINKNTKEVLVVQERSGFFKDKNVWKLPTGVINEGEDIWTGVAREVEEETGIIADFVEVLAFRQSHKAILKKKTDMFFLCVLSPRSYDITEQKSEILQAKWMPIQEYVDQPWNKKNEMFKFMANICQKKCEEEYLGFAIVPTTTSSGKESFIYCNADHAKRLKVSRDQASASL

[1] = molecular target: T2, FLAG:Avr3b^P6497 (Avh307^P6497) (Phytophthora sojae, UniProt E0W4V8); assay: as above; assay type: biochemical; conditions: 2 mM substrate, 5 mM MgCl2, 1 mM DTT, pH 8.5, 37 C; immunoprecipitate, not homogeneous
T2 construct: gene Avh; signal peptide replaced by N-terminal FLAG tag; 34-35 kDa; precursor 315 residues; Nicotiana benthamiana agroinfiltration (PVX vector pGR107), anti-FLAG immunoprecipitated, 3xFLAG eluted
T2 sequence (E0W4V8 entry or part of it): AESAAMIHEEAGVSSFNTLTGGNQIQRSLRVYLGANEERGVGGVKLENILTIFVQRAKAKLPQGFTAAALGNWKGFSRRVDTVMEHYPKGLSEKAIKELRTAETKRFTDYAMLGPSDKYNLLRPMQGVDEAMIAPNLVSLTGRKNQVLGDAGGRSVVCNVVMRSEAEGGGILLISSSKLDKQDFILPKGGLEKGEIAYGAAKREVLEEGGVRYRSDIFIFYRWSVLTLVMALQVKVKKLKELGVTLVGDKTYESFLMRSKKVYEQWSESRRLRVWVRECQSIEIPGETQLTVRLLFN

SMILES | relative hydrolase activity (ratio over GFP) (FLAG:AtNUDT7) | relative hydrolase activity (ratio over GFP) [1]
Nc1ncnc2c1ncn2[C@@H]1O[C@H](COP(=O)(O)OP(=O)(O)OC[C@H]2OC(O)[C@H](O)[C@@H]2O)[C@@H](O)[C@H]1O (stereo partly shown) [ADP-ribose] | FLAG:AtNUDT7 and FLAG:Avr3b^P6497 immunoprecipitates could both hydrolyze ADPR and NADH | FLAG:AtNUDT7 and FLAG:Avr3b^P6497 immunoprecipitates could both hydrolyze ADPR and NADH
NC(=O)C1=CN([C@@H]2O[C@H](COP(=O)(O)OP(=O)(O)OC[C@H]3O[C@@H](n4cnc5c(N)ncnc54)[C@H](O)[C@@H]3O)[C@@H](O)[C@H]2O)C=CC1 [NADH] | FLAG:AtNUDT7 and FLAG:Avr3b^P6497 immunoprecipitates could both hydrolyze ADPR and NADH | FLAG:AtNUDT7 and FLAG:Avr3b^P6497 immunoprecipitates could both hydrolyze ADPR and NADH
